Where two headings read alike, the source gives them in different places.
How the values were obtained:
Drosophila OR47a = target: T1, Drosophila OR47a (Drosophila melanogaster, UniProt P81921); experiment: Calcium ion fluorescence (GCaMP6) assay, OR47a stable HEK293 cell line; assay type: cell-based; settings: for response intensity / Average response / OR47a response (VUAA1-normalized) at 1 μM / OR47a response (VUAA1-normalized) at 10 μM / OR47a response (VUAA1-normalized) at 100 μM: OR47a cell line; for response intensity: of VUAA1 response; for Average response: mean of biological replicates
T1 construct: expressed in transfected cells
T1 sequence (P81921 1-385): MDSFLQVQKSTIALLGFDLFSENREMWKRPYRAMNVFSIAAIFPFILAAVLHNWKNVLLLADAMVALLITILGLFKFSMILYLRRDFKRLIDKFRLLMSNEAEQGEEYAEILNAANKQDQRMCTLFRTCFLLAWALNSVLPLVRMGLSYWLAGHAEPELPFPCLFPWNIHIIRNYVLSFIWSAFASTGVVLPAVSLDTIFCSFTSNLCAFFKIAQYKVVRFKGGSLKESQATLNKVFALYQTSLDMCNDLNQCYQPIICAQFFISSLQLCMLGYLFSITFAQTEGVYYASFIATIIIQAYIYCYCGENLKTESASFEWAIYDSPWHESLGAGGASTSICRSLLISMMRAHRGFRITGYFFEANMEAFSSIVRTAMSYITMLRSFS
T1 sequence (Q9VNB5 1-486 partner): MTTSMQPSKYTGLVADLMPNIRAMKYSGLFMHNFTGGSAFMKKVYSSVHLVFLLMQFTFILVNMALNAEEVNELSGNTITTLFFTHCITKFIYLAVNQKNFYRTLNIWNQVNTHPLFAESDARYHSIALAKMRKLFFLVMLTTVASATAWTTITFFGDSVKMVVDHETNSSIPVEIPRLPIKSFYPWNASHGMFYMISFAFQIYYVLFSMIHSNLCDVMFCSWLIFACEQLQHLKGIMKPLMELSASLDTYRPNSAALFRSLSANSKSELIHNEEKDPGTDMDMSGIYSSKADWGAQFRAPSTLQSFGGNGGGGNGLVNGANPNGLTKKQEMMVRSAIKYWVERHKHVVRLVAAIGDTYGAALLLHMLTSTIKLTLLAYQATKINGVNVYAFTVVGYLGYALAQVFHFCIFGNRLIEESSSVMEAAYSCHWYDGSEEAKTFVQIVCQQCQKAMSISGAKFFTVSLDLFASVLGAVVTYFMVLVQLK
Description: (§1) These VUAA1 normalized ∆F values were used to compare the different receptors and ligands.
(§2) The concentration-dependent effect of the reference ligands on their cognate cell lines was examined in more detail. Twelve different ligand concentrations were measured on each cell line in an overall 0.01 μM to 100 μM concentration range with 5 repetitions with three technical replicates each time.
(§3) Twelve thousand to 18,000 cells were plated into each well of a black wall, transparent bottom 384-well microplate (Greiner) 48 h or 72 h before the measurements and were simultaneously treated with 1 μg/mL doxycycline. […] The plate has 24 columns, thus we could record responses in up to eight different cell lines in each plate. On the day of the experiment, the growth medium was replaced with 20 µL assay buffer/well (140 mM NaCl, 5 mM KCl, 2 mM CaCl2, 1 mM MgCl2, 5 mM HEPES-Na, 20 mM glucose, pH 7.3, 340 mOsm). […] Baseline fluorescence (F0) was recorded for 5 s, after which 7 µL VOC buffer (140 mM NaCl, 5 mM KCl, 2 mM CaCl2, 1 mM MgCl2, 5 mM HEPES-Na, 31 mM glucose, 0.1% DMSO, pH 7.3, 340 mOsm) was injected into each well in one row and the fluorescence response was recorded for an additional 30 s, at a rate of one read/sec. VOC solutions (VOC buffer with 4× concentration of the final measured VOC concentration, 9 µL/well was injected) were measured on the same wells in a second round with the same protocol. Each individual concentration of a specific VOC sample was recorded in three wells for the same cell line on the same microplate. The raw data were exported in xls file format, F0 and FMAX values, and the fluorescence intensity changes (∆F) were calculated in Excel (Microsoft) (Supplementary file Data summary.xlsx) using the following equation: ΔF=FMAX-F0/F0 (see also Fig. 1C). On each plate, we recorded the response of each cell line to 50 µM VUAA1. The average of these ∆F values of each cell line were used to calculate the VUAA1-normalized values for the rest of the plate, by dividing VOC response ∆F values by the average VUAA1 response ∆F value of the corresponding OR cell line. Each VOC-OR combination was measured three times as technical replicates. […] The average of these replicates were used as one ∆F and VUAA1-normalized ∆F in the following analysis.
(§4) In the next rows we tested the reference VOCs (or other VOCs known to activate the corresponding cell lines), in order to test if all cell lines are responsive. The remaining rows were used to test VOCs with unknown effect.
(§5) The recorded FMAX, F0, ∆F, VUAA1-normalized ∆F values, as well as the OR name, the name of the tested sample, and the final concentration for each well were copied into supplementary file Data summary.xlsx, that was used to summarize all the plates recorded. Here, the averages of the measurements were calculated for each receptor-VOC-concentration combination.

Drosophila OR85b = target: T2, Drosophila OR85b (Drosophila melanogaster, UniProt Q9VHQ7); experiment: Calcium ion fluorescence (GCaMP6) assay, OR85b stable HEK293 cell line; assay type: cell-based; settings: for activation at 1 µM / activation at 10 µM / activation at 100 µM: HEK293, read-out: OR85b response (VUAA1-normalized response); for Average response / OR85b response (VUAA1-normalized) at 1 μM / OR85b response (VUAA1-normalized) at 10 μM / OR85b response (VUAA1-normalized) at 100 μM: OR85b cell line; for Average response: VUAA1-normalized response, mean of biological replicates
T2 construct: expressed in transfected cells
T2 sequence (Q9VHQ7 1-390): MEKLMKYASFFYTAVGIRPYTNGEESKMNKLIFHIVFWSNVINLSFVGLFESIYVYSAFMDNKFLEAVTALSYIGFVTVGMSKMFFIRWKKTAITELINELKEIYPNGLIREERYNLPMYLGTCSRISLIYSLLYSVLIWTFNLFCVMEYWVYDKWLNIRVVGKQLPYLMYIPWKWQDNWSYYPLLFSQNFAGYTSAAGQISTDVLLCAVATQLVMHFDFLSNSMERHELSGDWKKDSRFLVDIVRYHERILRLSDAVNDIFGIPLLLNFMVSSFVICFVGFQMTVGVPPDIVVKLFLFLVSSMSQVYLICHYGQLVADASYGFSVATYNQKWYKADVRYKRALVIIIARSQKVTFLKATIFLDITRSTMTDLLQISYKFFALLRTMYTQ
T2 sequence (Q9VNB5 1-486 partner): T1 sequence (Q9VNB5 1-486 partner)
Description: as §1, §2, §3, §4, §5

[1] = HEK293, read-out: OR47a Average response (VUAA1-normalized)
[2] = HEK293, read-out: OR47a response (VUAA1-normalized response)
[3] = ligand concentration 1 (unit not given), threshold 0.05, below shown as 0
[4] = ligand concentration 10 (unit not given), threshold 0.05, below shown as 0
[5] = ligand concentration 100 (unit not given), threshold 0.05, below shown as 0
[6] = concentration 1, normalized fluorescence change, values below 0.05 threshold given as 0
[7] = concentration 10, normalized fluorescence change, values below 0.05 threshold given as 0
[8] = concentration 100, normalized fluorescence change, values below 0.05 threshold given as 0

Compound	activation at 1 µM (Drosophila OR47a; [2])	activation at 10 µM (Drosophila OR47a; [2])	activation at 100 µM (Drosophila OR47a; [2])	Average response (Drosophila OR47a; odorant cc. 1 µM)	Average response (Drosophila OR47a; odorant cc. 10 µM)	Average response (Drosophila OR47a; odorant cc. 100 µM)	activation at 1 µM (Drosophila OR85b)	activation at 10 µM (Drosophila OR85b)	activation at 100 µM (Drosophila OR85b)	Average response (Drosophila OR85b; cc. 1 µM)	Average response (Drosophila OR85b; cc. 10 µM)	Average response (Drosophila OR85b; cc. 100 µM)	DF norm AVERAGE OR47a (Drosophila OR47a; [6])	DF norm AVERAGE OR47a (Drosophila OR47a; [7])	DF norm AVERAGE OR47a (Drosophila OR47a; [8])	DF norm AVERAGE OR85b (Drosophila OR85b; [6])	DF norm AVERAGE OR85b (Drosophila OR85b; [7])	DF norm AVERAGE OR85b (Drosophila OR85b; [8])	other results
CC(=O)OCCC(C)C [isopentyl acetate]	0%	12%	18%	0.00	0.12	0.18	0%	7%	0%	0.00	0.07	0.0239							activation at 1 µM (Drosophila OR47a; [1]): 0%; activation at 10 µM (Drosophila OR47a; [1]): 12%; activation at 100 µM (Drosophila OR47a; [1]): 18%; response intensity (Drosophila OR47a; 10 μM): 12%; response intensity (Drosophila OR47a; 100 μM): 18%; DF norm AVERAGE OR47a (Drosophila OR47a; [3]): 0; DF norm AVERAGE OR47a (Drosophila OR47a; [4]): 0.1209; DF norm AVERAGE OR47a (Drosophila OR47a; [5]): 0.1752; DF norm AVERAGE OR85b (Drosophila OR85b; [3]): 0; DF norm AVERAGE OR85b (Drosophila OR85b; [4]): 0.07146; DF norm AVERAGE OR85b (Drosophila OR85b; [5]): 0
Cc1ccc(O)cc1 [4-methylphenol]	10%	0%	5.42%	0.10	0.0217	0.0542	0%	0%	0%	0.00	0.04	0.00	0.1	0	0.05422	0	0	0	
CCCCC(C)O (centres unmarked) [2-hexanol]	0%	0%	5%	0.04	0.00	0.05	0%	0%	0%	0.05	0.00	0.00	0	0	0.05091	0	0	0	
(-)-alpha-cedrene				0.00	0.00	0.02				0.00	0.0466	0.0948	0	0	0	0	0	0.09481	OR47a response (VUAA1-normalized response) (Drosophila OR47a; VOC concentration 1 μM): 0.00; OR47a response (VUAA1-normalized response) (Drosophila OR47a; VOC concentration 10 μM): 0.00; OR47a response (VUAA1-normalized response) (Drosophila OR47a; VOC concentration 100 μM): 0.00; OR85b response (VUAA1-normalized response) (Drosophila OR85b; VOC concentration 1 μM): 0.00; OR85b response (VUAA1-normalized response) (Drosophila OR85b; VOC concentration 10 μM): 0.00; OR85b response (VUAA1-normalized response) (Drosophila OR85b; VOC concentration 100 μM): 0.0948
CC/C=C\CCO [Z-3-hexenol]																			OR47a response (VUAA1-normalized) at 1 μM (Drosophila OR47a; VOC concentration 1 μM): 0.00; OR47a response (VUAA1-normalized) at 10 μM (Drosophila OR47a; VOC concentration 10 μM): 0.0571; OR47a response (VUAA1-normalized) at 100 μM (Drosophila OR47a; VOC concentration 100 μM): 0.10; OR85b response (VUAA1-normalized) at 1 μM (Drosophila OR85b; VOC concentration 1 μM): 0.0533; OR85b response (VUAA1-normalized) at 10 μM (Drosophila OR85b; VOC concentration 10 μM): 0.00; OR85b response (VUAA1-normalized) at 100 μM (Drosophila OR85b; VOC concentration 100 μM): 0.00
C=C1CCC2(C(C)C)CC12 (centres unmarked) [sabinene]				0.00	0.00	0.00				0.0647	0.0439	0.09							OR47a response (VUAA1-normalized) at 1 μM (Drosophila OR47a; VOC concentration 1 μM): 0.00; OR47a response (VUAA1-normalized) at 10 μM (Drosophila OR47a; VOC concentration 10 μM): 0.00; OR47a response (VUAA1-normalized) at 100 μM (Drosophila OR47a; VOC concentration 100 μM): 0.00; DF norm AVERAGE OR47a (Drosophila OR47a; [3]): 0; DF norm AVERAGE OR47a (Drosophila OR47a; [4]): 0; DF norm AVERAGE OR47a (Drosophila OR47a; [5]): 0; OR85b response (VUAA1-normalized) at 1 μM (Drosophila OR85b; VOC concentration 1 μM): 0.0647; OR85b response (VUAA1-normalized) at 10 μM (Drosophila OR85b; VOC concentration 10 μM): 0.00; OR85b response (VUAA1-normalized) at 100 μM (Drosophila OR85b; VOC concentration 100 μM): 0.09; DF norm AVERAGE OR85b (Drosophila OR85b; [3]): 0.06468; DF norm AVERAGE OR85b (Drosophila OR85b; [4]): 0; DF norm AVERAGE OR85b (Drosophila OR85b; [5]): 0.08701
CCCCC(C)=O [2-hexanone]	0%	0%	16%	0.0368	0.00	0.16	0%	6%	0%	0.00	0.06	0.0338	0	0	0.1643	0	0.05777	0	activation at 1 µM (Drosophila OR47a; [1]): 4%; activation at 10 µM (Drosophila OR47a; [1]): 0%; activation at 100 µM (Drosophila OR47a; [1]): 16%

— paper PMC10709440, “High-throughput ligand profile characterization in novel cell lines expressing seven heterologous insect olfactory receptors for the detection of volatile plant biomarkers” (Scientific Reports, 2023)
